Experimental data taken from PubChem BioAssay AID1963847 (Molecular Pharmacology Branch, DTP, NCI, 2024).
“And” between values parts separate entries of the source, which are not always exact repeats. Equal entries are not always repeated. Each block holds one molecule with its values, some of them ahead of it.

Tested on: 415267-285-R-J2-PDC complex spheroid viability
Test: Anticancer human tumor 415267-285-R-J2-PDC patient-derived breast carcinoma cell line growth inhibition [POLQ]
Settings: for viability, T/C: stronger effect = lower value
Experimental: Multicellular complex tumor spheroid response to Polymerase (POL) inhibitors (novobiocin, ART-558, RP6685) in combination with a variety of drugs and investigational agents in selected tumor cell lines
The POL inhibitors (novobiocin, ART-558, and RP6685) were evaluated both individually and in combination with standard of care and investigational anticancer small molecules within a complex spheroid model of solid tumors. . Complex spheroids include a stromal component modeled by human endothelial cells (HUVEC) and fibroblasts modeled by human mesenchymal stem cells (MSCs). The concentration ranges selected for each drug and investigational agent were based upon clinically achievable concentrations if the clinical Cmax of the agent was known.
Compounds. The drugs and investigational agents: novobiocin (NSC847541), ART-558 (NSC835418), RP-6685 (NSC848927), peposertib (NSC802822), ceralasertib (NSC780249), elimusertib (NSC800525), camonsertib (NSC841442), AZD-1390 (NSC803789), olaparib (NSC753686), talazoparib (NSC767125), rucaparib (NSC756644), sotorasib (NSC818433), MRTX-1133 (NSC836407), SN-38 (NSC673596), topotecan (NSC609699), epotoside (NSC141540), doxorubicin (NSC123127), gemcitabine (NSC613327), 5-fluorouracil (NSC19893), paclitaxel (NSC125973), vemurafenib (NSC761431), MSA-2 (NSC828583), SN-011 (NSC837082), adavosertib (NSC754352), prexasertib (NSC758257), carboplatin (NSC241240) and oxaliplatin (NSC266046), were obtained from the National Cancer Institute (NCI) Developmental Therapeutics Program Chemical Repository (21). The FDA-approved anticancer drug set is available from the Developmental Therapeutics Program at https://dtp.cancer.gov/organization/dscb/obtaining/. […] The stock solutions were prepared in dimethyl sulfoxide (DMSO, Sigma-Aldrich, St. Louis, MO, cat. D2650), except for the platinum compounds which were prepared in saline (Quality Biological, Gaithersburg, MD, cat. 114-055-101), at 800-fold the tested concentration and stored at -70 degrees C prior to their use. All drugs and investigational agents were tested over a range starting from a high concentration at or near the clinical Cmax and decreasing in half-log increments. If the clinical Cmax for an agent had not been determined, the highest concentration tested was 10 microM, except for SN-38, which was tested at a high concentration of 1 microM.
Cell Culture. All cells were maintained in an incubator at 37 degrees C and 5% CO2 with 95% humidity. The PDC lines were cultured according to standard operating procedures established by the NCI PDMR (https://pdmr.cancer.gov). Table 3 of the manuscript, lists the cell lines along with the number of the three cell types plated to form the mct-spheroids and media for tumor cell growth. After thawing, all PDC lines, except 997537-175-T-J1-PDC and 415267-285-R-J2-PDC, were cultured in Matrigel-coated flasks prepared with a working solution of 1X Ham's F-12 nutrient mix, without supplementation (Thermo Fisher Scientific, cat. 11765054), 100 U/mL penicillin-streptomycin (Thermo Fisher Scientific, cat. 15140122), and 2.5% Matrigel (Corning Inc., Corning, NY, cat. 354248) for the first three passages. The two PDC lines 997537-175-T-J1-PDC and 415267-285-R-J2-PDC were cultured on uncoated flasks. The 857933-349-R-J2-PDC line was cultured in 6C/Colon 1B media containing advanced DMEM/F-12 (Thermo Fisher Scientific, cat. 12634028), 10 mM HEPES (Thermo Fisher Scientific, cat. 15630080), 1X GlutaMAX supplement (Thermo Fisher Scientific, cat. 35050061), 0.1 mg/mL primocin (InvivoGen, San Diego, CA, cat. ant-pm-2), 10% defined fetal bovine serum, heat inactivated (HyClone Laboratories Inc., Logan, UT, cat. SH30070.03HI), 50% L-WRN conditioned media (ATCC, cat. CRL-3276), 1.25 mM N-Acetyl-L-cysteine (Sigma-Aldrich, cat. A9165), 10 mM nicotinamide (Sigma-Aldrich, cat. N0636), 1X B-27 supplement (Thermo Fisher Scientific, cat. 17504044), 1X N-2 supplement (Thermo Fisher Scientific, cat. […]
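Note: spheroids exposed to compounds for one week before readout.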
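Throughout, for viability, T/C: luminescence used as stand-in measure of viable cells; 100% = DMSO vehicle control viability.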

Compound: COc1cccc2c1C(=O)c1c(O)c3c(c(O)c1C2=O)CC(O)(C(=O)CO)CC3OC1CC(N)C(O)C(C)O1 (stereo not drawn) + Nc1ccc(C#CCN(C(=O)Cc2ncc(C(F)(F)F)cc2C(F)(F)F)c2ccc(F)cc2)nn1
IC50 (curve of first compound, second compound 0.0316 µM): 55.7 nM
IC50 (curve of first compound, second compound 0.1 µM): 54.6 nM
IC50 (curve of first compound, second compound 0.316 µM): 57.9 nM
IC50 (curve of first compound, second compound 1 µM): 50 nM
IC50 (curve of first compound, second compound 3.16 µM): 49.5 nM
IC50 (curve of first compound, second compound 10 µM): < 31.6 nM
viability, T/C (second compound 0.0316 µM, first compound 0.0316 µM): 81.1%
viability, T/C (second compound 0.0316 µM, first compound 0.1 µM): 18%
viability, T/C (second compound 0.0316 µM, first compound 0.316 µM): 4.33%
viability, T/C (second compound 0.0316 µM, first compound 1 µM): 0.75%
viability, T/C (second compound 0.0316 µM, first compound 3.16 µM): 1.29%
viability, T/C (second compound 0.0316 µM, first compound 10 µM): 3.55%
viability, T/C (second compound 0.1 µM, first compound 0.0316 µM): 80.9%
viability, T/C (second compound 0.1 µM, first compound 0.1 µM): 15.8%
viability, T/C (second compound 0.1 µM, first compound 0.316 µM): 3.25%
viability, T/C (second compound 0.1 µM, first compound 1 µM): 0.65%
viability, T/C (second compound 0.1 µM, first compound 3.16 µM): 0.93%
viability, T/C (second compound 0.1 µM, first compound 10 µM): 3.6%
viability, T/C (second compound 0.316 µM, first compound 0.0316 µM): 80.6%
viability, T/C (second compound 0.316 µM, first compound 0.1 µM): 22.5%
viability, T/C (second compound 0.316 µM, first compound 0.316 µM): 3.28%
viability, T/C (second compound 0.316 µM, first compound 1 µM): 0.8%
viability, T/C (second compound 0.316 µM, first compound 3.16 µM): 1.04%
viability, T/C (second compound 0.316 µM, first compound 10 µM): 3.39%
viability, T/C (second compound 1 µM, first compound 0.0316 µM): 76.9%
viability, T/C (second compound 1 µM, first compound 0.1 µM): 9.51%
viability, T/C (second compound 1 µM, first compound 0.316 µM): 3.66%
viability, T/C (second compound 1 µM, first compound 1 µM): 0.83%
viability, T/C (second compound 1 µM, first compound 3.16 µM): 1.07%
viability, T/C (second compound 1 µM, first compound 10 µM): 4.04%
viability, T/C (second compound 3.16 µM, first compound 0.0316 µM): 73.7%
viability, T/C (second compound 3.16 µM, first compound 0.1 µM): 13%
viability, T/C (second compound 3.16 µM, first compound 0.316 µM): 4.28%
viability, T/C (second compound 3.16 µM, first compound 1 µM): 1.36%
viability, T/C (second compound 3.16 µM, first compound 3.16 µM): 1.16%
viability, T/C (second compound 3.16 µM, first compound 10 µM): 3.92%
viability, T/C (second compound 10 µM, first compound 0.0316 µM): 49.4%
viability, T/C (second compound 10 µM, first compound 0.1 µM): 9.57%
viability, T/C (second compound 10 µM, first compound 0.316 µM): 4.23%
viability, T/C (second compound 10 µM, first compound 1 µM): 1.37%
viability, T/C (second compound 10 µM, first compound 3.16 µM): 1.54%
viability, T/C (second compound 10 µM, first compound 10 µM): 4.35%

Compound: Cn1ncnc1[C@H]1c2n[nH]c(=O)c3cc(F)cc(c23)N[C@@H]1c1ccc(F)cc1
viability, T/C (compound 0.000316 µM): 88.1% and 97.7% and 104%
viability, T/C (compound 0.001 µM): 98.2% and 104% and 91.7%
viability, T/C (compound 0.00316 µM): 90.7% and 92.5% and 103%
viability, T/C (compound 0.01 µM): 101% and 98.7% and 94.5%
viability, T/C (compound 0.0316 µM): 108% and 89.2% and 99%
viability, T/C (compound 0.1 µM): 93.3% and 102% and 100%
IC50 (curve of compound): > 100 nM

Compound: COC1C(OC(N)=O)C(O)C(Oc2ccc3c(O)c(NC(=O)c4ccc(O)c(CC=C(C)C)c4)c(=O)oc3c2C)OC1(C)C (stereo not drawn)
viability, T/C (compound 0.0316 µM): 99.2% [middle of 13 runs]
viability, T/C (compound 0.1 µM): 105% [middle of 13 runs]
viability, T/C (compound 0.316 µM): 99.3% [middle of 13 runs]
viability, T/C (compound 3.16 µM): 102% [middle of 13 runs]
viability, T/C (compound 10 µM): 102% [middle of 13 runs]
IC50 (compound alone, run of 01/08/2024): > 10000 nM

IC50 (compound alone, run of 01/19/2024): > 10000 nM
Compound: Nc1ccc(C#CCN(C(=O)Cc2ncc(C(F)(F)F)cc2C(F)(F)F)c2ccc(F)cc2)nn1
viability, T/C (compound 0.0316 µM): 93.6% [middle of 13 runs]
viability, T/C (compound 0.1 µM): 101% [middle of 13 runs]
viability, T/C (compound 0.316 µM): 101% [middle of 12 runs]
viability, T/C (compound 1 µM): 103% [middle of 13 runs]
viability, T/C (compound 3.16 µM): 107% [middle of 13 runs]
viability, T/C (compound 10 µM): 106% [middle of 13 runs]

Compound: CC1COCCN1c1cc(-c2ccnn2C)c2ccnc(-c3ccn[nH]3)c2n1 (stereo not drawn)
viability, T/C (compound 0.0316 µM): 46.6% and 47.9% and 59.5%
viability, T/C (compound 0.1 µM): 10.6% and 13.9% and 11.1%
viability, T/C (compound 0.316 µM): 6.96% and 5.73% and 5.2%
viability, T/C (compound 1 µM): 5.32% and 5.61% and 4.36%
viability, T/C (compound 3.16 µM): 4.68% and 4.28% and 3.7%
viability, T/C (compound 10 µM): 4.66% and 4.53% and 3.78%
IC50 (curve of compound): < 31.6 nM and 39.6 nM

Compound: CC1COCCN1c1cc(C2(O)CC3CCC(C2)O3)c2cnn(-c3ccn[nH]3)c2n1 (stereo not drawn)
viability, T/C (compound 0.0316 µM): 18.3% and 19.4% and 19.9%
viability, T/C (compound 0.1 µM): 6.66% and 6.95% and 6.71%
viability, T/C (compound 0.316 µM): 5.68% and 5.24% and 4.27%
viability, T/C (compound 1 µM): 3.96% and 5.04% and 3.53%
viability, T/C (compound 3.16 µM): 6.45% and 6.44% and 3.52%
viability, T/C (compound 10 µM): 4.11% and 4.93% and 2.88%
IC50 (curve of compound): < 31.6 nM

Compound: CCCS(=O)(=O)Nc1ccc(F)c(C(=O)c2c[nH]c3ncc(-c4ccc(Cl)cc4)cc23)c1F
viability, T/C (compound 0.0316 µM): 96.6% and 91.5% and 93.2%
viability, T/C (compound 0.1 µM): 96.8% and 99.3% and 96.4%
viability, T/C (compound 0.316 µM): 104% and 98% and 94.8%
viability, T/C (compound 1 µM): 107% (2×) and 100%
viability, T/C (compound 3.16 µM): 88.1% and 98.2% and 98%
viability, T/C (compound 10 µM): 86.5% and 87.4% and 72%
IC50 (curve of compound): > 10000 nM
